Reference: ChEMBL document CHEMBL3097993, “Synthesis and initial biological evaluation of new mimics of the LXR-modulator 22(S)-hydroxycholesterol” (2014)
Each block holds one compound with its values, some of them ahead of it. The source made the active and inactive calls. No cut-off for these calls is given here.

Columns and labels:
[1] = species: Homo sapiens; assay: Induction of lipogenesis in human myotubes at 1 uM after 4 days by scintillation counting analysis in presence of [1-14C]acetate; type: functional
[2] = (§1) Induction of lipogenesis in human myotubes at 10 uM after 4 days by scintillation counting analysis in presence of [1-14C]acetate relative to control; type: functional
[3] = target: T1, Liver X receptor (Homo sapiens) (UniProt Q13133+P55055); assay: Agonist activity at LXR in human myotubes assessed as upregulation of SCD1 expression at 10 uM after 4 days by qPCR analysis
[4] = target: T1, Liver X receptor (Homo sapiens); assay: Antagonist activity at LXR in human myotubes assessed as downregulation of SCD1 expression at 10 uM after 4 days by qPCR analysis
[5] = species: Homo sapiens; assay: as §1; type: functional
[6] = species: Homo sapiens; assay: Inhibition of tularic-induced lipogenesis in human myotubes at 10 uM after 4 days by scintillation counting analysis in presence of [1-14C]acetate relative to control; type: functional

Compound: O=S(=O)(c1ccccc1)N(CC(F)(F)F)c1ccc(C(O)(C(F)(F)F)C(F)(F)F)cc1
Activity [1]: Active

Activity [3]: Active
Compound: CC(C)CC[C@H](O)[C@@H](C)COCc1ccc(S(=O)(=O)N2CCCC2)cc1
fold change (FC) [2]: 2

Compound: CC(C)CC[C@H](O)[C@@H](C)[C@H]1CC[C@H]2[C@@H]3CC=C4C[C@@H](O)CC[C@]4(C)[C@H]3CC[C@]12C
Activity [4]: Active
Activity [5]: inactive
inhibition [6]: Active
